# Measurements published in article PMC4450297, “Screening Active Compounds from Garcinia Species Native to China Reveals Novel Compounds Targeting the STAT/JAK Signaling Pathway” (BioMed Research International, 2015).
# Key:
# Assay in all cases: Cell panel screen (CellTiter-Glo)
# Type in all cases: cell-based, human
# NCI-H1770 = NCI-H1770 (Lung), 20 micromolar, 72 hrs
# Outline: (§1)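 Steps: seed cells, culture overnight at 37°C; add compound diluted in medium from DMSO stock to 20 μM final; incubate 72 h; add detection reagent for 10 min; read luminescence; compute % inhibition versus vehicle controls.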
# T98G = T98G (Brain), 20 micromolar, 72 hrs
# Outline: as §1
# T47D = T47D (Breast), 20 micromolar, 72 hrs
# Outline: as §1
# CW-2 = CW-2 (Colon), 20 micromolar, 72 hrs
# Outline: as §1
# HCC1395 = HCC1395 (Breast), 20 micromolar, 72 hrs
# Outline: as §1
# HT-1197 = HT-1197 (Urinary bladder), 20 micromolar, 72 hrs
# Outline: as §1
# CCF-STTG1 = CCF-STTG1 (Brain), 20 micromolar, 72 hrs
# Outline: as §1
# HEC-1-A = HEC-1-A (Uterus), 20 micromolar, 72 hrs
# Outline: as §1
# Colo 205 = conditions: Colo 205, 20 micromolar, 72 hrs
# Outline: as §1
# BT-474 = BT-474 (Breast), 20 micromolar, 72 hrs
# Outline: as §1
# ChaGo-K-1 = ChaGo-K-1 (Lung), 20 micromolar, 72 hrs
# Outline: as §1
# A498 = A498 (listed under Lung), 20 micromolar, 72 hrs
# Outline: as §1
# NCI-H28 = NCI-H28 (Lung), 20 micromolar, 72 hrs
# Outline: as §1
# C8166 = C8166 (Leukemia), 20 micromolar, 72 hrs
# Outline: as §1
# A704 = A704 (Kidney), 20 micromolar, 72 hrs
# Outline: as §1
# HCC1599 = HCC1599 (Breast), 20 micromolar, 72 hrs
# Outline: as §1
# M059J = M059J (Brain), 20 micromolar, 72 hrs
# Outline: as §1
# ZR-75-30 = ZR-75-30 (Breast), 20 micromolar, 72 hrs
# Outline: as §1
# NCI-H1694 = NCI-H1694 (Lung), 20 micromolar, 72 hrs
# Outline: as §1
# SW13 = SW13 (Adrenal gland), 20 micromolar, 72 hrs
# Outline: as §1
# MSTO-211-H = MSTO-211-H (Lung), 20 micromolar, 72 hrs
# Outline: as §1
# J82 = J82 (Urinary bladder), 20 micromolar, 72 hrs
# Outline: as §1
# HPAF-II = HPAF-II (Pancreas), 20 micromolar, 72 hrs
# Outline: as §1
# NCI-H2405 = NCI-H2405 (Lung), 20 micromolar, 72 hrs
# Outline: as §1
# Bel-7402 = Bel-7402 (Liver), 20 micromolar, 72 hrs
# Outline: as §1
# HGC-27 = HGC-27 (Stomach), 20 micromolar, 72 hrs
# Outline: as §1
# BT-549 = BT-549 (Breast), 20 micromolar, 72 hrs
# Outline: as §1
# C3A = C3A (Liver), 20 micromolar, 72 hrs
# Outline: as §1
# HCC1569 = HCC1569 (Breast), 20 micromolar, 72 hrs
# Outline: as §1
# HCC1937 = HCC1937 (Breast), 20 micromolar, 72 hrs
# Outline: as §1
# Panc 03.27 = Panc 03.27 (Pancreas), 20 micromolar, 72 hrs
# Outline: as §1
# NCI-H1623 = NCI-H1623 (Lung), 20 micromolar, 72 hrs
# Outline: as §1
# NCI-H524 = NCI-H524 (Lung), 20 micromolar, 72 hrs
# Outline: as §1
# RL95 = RL95 (Uterus), 20 micromolar, 72 hrs
# Outline: as §1
# NCI-H2347 = NCI-H2347 (Lung), 20 micromolar, 72 hrs
# Outline: as §1
# TCCSUP = TCCSUP (Urinary bladder), 20 micromolar, 72 hrs
# Outline: as §1
SMILES,Percent Inhibition (NCI-H1770) [%],Percent Inhibition (T98G) [%],Percent Inhibition (T47D) [%],Percent Inhibition (CW-2) [%],Percent Inhibition (HCC1395) [%],Percent Inhibition (HT-1197) [%],Percent Inhibition (CCF-STTG1) [%],Percent Inhibition (HEC-1-A) [%],Percent Inhibition (Colo 205) [%],Percent Inhibition (BT-474) [%],Percent Inhibition (ChaGo-K-1) [%],Percent Inhibition (A498) [%],Percent Inhibition (NCI-H28) [%],Percent Inhibition (C8166) [%],Percent Inhibition (A704) [%],Percent Inhibition (HCC1599) [%],Percent Inhibition (M059J) [%],Percent Inhibition (ZR-75-30) [%],Percent Inhibition (NCI-H1694) [%],Percent Inhibition (SW13) [%],other results
COc1c(O)c(O)c2c(=O)c3c(CC=C(C)C)c(CC=C(C)C)c(O)c(O)c3oc2c1CC=C(C)C [Compound N-7],-6,17,-9,22,22,13,6,-17,9,-21,4,13,21,10,1,8,10,-11,25,-14,Percent Inhibition (MSTO-211-H): -1%; Percent Inhibition (J82): 17%; Percent Inhibition (HPAF-II): 9%; Percent Inhibition (NCI-H2405): -7%; Percent Inhibition (Bel-7402): 15%; Percent Inhibition (HGC-27): 0%; Percent Inhibition (BT-549): -14%; Percent Inhibition (C3A): 24%; Percent Inhibition (HCC1569): 5%; Percent Inhibition (HCC1937): -5%; Percent Inhibition (Panc 03.27): -24%; Percent Inhibition (NCI-H1623): -8%; Percent Inhibition (NCI-H524): -30%; Percent Inhibition (RL95): -16%; Percent Inhibition (NCI-H2347): -18%; Percent Inhibition (TCCSUP): 18%
COc1ccc2c(=O)c3c(O)cc(O)cc3oc2c1OC [Go-14],-4,8,-3,5,-8,-3,-1,-6,8,-23,-16,-2,-3,2,-13,0,0,-20,-3,-12,Percent Inhibition (MSTO-211-H): 11%; Percent Inhibition (J82): -8%; Percent Inhibition (HPAF-II): 0%; Percent Inhibition (NCI-H2405): -10%; Percent Inhibition (Bel-7402): -8%; Percent Inhibition (HGC-27): -2%; Percent Inhibition (BT-549): -16%; Percent Inhibition (C3A): -7%; Percent Inhibition (HCC1569): 2%; Percent Inhibition (HCC1937): 3%; Percent Inhibition (Panc 03.27): 4%; Percent Inhibition (NCI-H1623): -10%; Percent Inhibition (NCI-H524): -5%; Percent Inhibition (RL95): -5%; Percent Inhibition (NCI-H2347): -2%; Percent Inhibition (TCCSUP): 6%
"CC(C)=CCc1c(O)c(O)cc2oc3cc(O)cc(O)c3c(=O)c12 [bn-10, 1,3,6,7-tetrahydroxy-8-(3-methylbut-2-enyl)xanthone]",0,21,4,25,8,8,8,22,19,-3,18,25,12,23,-11,77,9,77,28,11,Percent Inhibition (MSTO-211-H): 4%; Percent Inhibition (J82): 29%; Percent Inhibition (HPAF-II): -2%; Percent Inhibition (NCI-H2405): -8%; Percent Inhibition (Bel-7402): 7%; Percent Inhibition (HGC-27): 30%; Percent Inhibition (BT-549): -4%; Percent Inhibition (C3A): 20%; Percent Inhibition (HCC1569): 16%; Percent Inhibition (HCC1937): 32%; Percent Inhibition (Panc 03.27): -1%; Percent Inhibition (NCI-H1623): -10%; Percent Inhibition (NCI-H524): -20%; Percent Inhibition (RL95): 15%; Percent Inhibition (NCI-H2347): 9%; Percent Inhibition (TCCSUP): 33%
